The source of these data is publication PMC2854131 (PLoS ONE, 2010).

Structures are written as SMILES. Like-named read-outs stand apart in the source and are kept apart here.

Data set [1] addresses T1, recombinant BoNTAe (BoNTA endopeptidase) (Clostridium botulinum, UniProt P0DPI0). As to conditions: cited from earlier work.
The target of another data set is BoNTA (Clostridium botulinum, UniProt P0DPI0). The arrangement: species or system Balb/c mice. As to conditions: mouse, in vivo.
For data set [2] the following is noted: Balb/c, mouse, in vivo, ip, 2 mg/kg.
For data set [3] the following is noted: mouse, in vivo.
Another data set in a line: in vivo. As to conditions: Balb/c, mouse, ip, 2 mg/kg.
For data set [4], the target named is T1, recombinant BoNTAe (BoNTA endopeptidase). The experiment in a line: biochemical. As to conditions: read-out: % BoNTAe inhibition.
The nature of the next data set: physchem. As to conditions: water.

As for `NCCCCn1c(-c2ccccc2)cc2ccc(C(=O)c3cc(CC(=O)NO)c(-c4ccccc4)s3)cc21` [APH, reference compound], the Ki in data set [1] (read-out: Ki^app) is 7 µM.
Consider `NCCCCn1c(-c2ccccc2)c(F)c2ccc(C(=O)c3cc(CC(=O)NO)c(-c4cccc(N)c4)s3)cc21` [Inhibitor F3A, 2-(5-(1-(4-Aminobutyl)-3-fluoro-2-phenyl-1H-indole-6-carbonyl)-2-(3-aminophenyl)thiophen-3-yl)-N-hydroxyacetamide], for which, on BoNTA, the “survival during the 12-hour period after the BoNTA challenge, in words” value (“survival during the 12-hour period” for short) is “all mice treated with any of the three inhibitors survived” and the “treated mice that died 48 hours after the toxin challenge” value (shortened to “treated mice that died 48 hours”) stood at 90%. The “C24 (concentration 24 hours after one dose)” value in data set [2] turned out to be 7.0 ng/mL. The “acute toxicity to mice, in words” value in data set [3] is recorded as “no acute toxicity”. Further, in “in vivo”, the AUC(0-t) (in general, the area under the concentration-time curve up to a stated or last time point) came out at 1390 ng·h/mL and the Cmax (in general, the maximum level reached in the sampled fluid or tissue) was 256 ng/mL. Besides, the half-life (as a rule, how long it takes for the measured level to halve) in “in vivo” (T1/2) was 6.25 h. The compound further gave a half-life in “in vivo” (in vivo half-life (t1/2)) of approximately 6 h. Also, in data set [4], the inhibition (as a rule, how much of the control response was suppressed) at 20 µM came to 47 ± 1%. Moreover, the solubility (as a rule, how much of the substance goes into solution per volume) in the data set “physchem” was not below 5 mM.
Regarding `NCCCCn1c(-c2ccccc2)c(F)c2ccc(C(=O)c3cc(CC(=O)NO)c(-c4ccc(O)cc4)s3)cc21` [Inhibitor F4H, 2-(5-(1-(4-Aminobutyl)-3-fluoro-2-phenyl-1H-indole-6-carbonyl)-2-(4-hydroxyphenyl)thiophen-3-yl)-N-hydroxyacetamide], at BoNTA, the “protection (survival) of mice 24 hours after the toxin challenge” value is recorded as 70%; the “protection (survival) of mice 48 hours after the toxin challenge” value stood at 60%; the “protection (survival) of mice during the 12-hour period after the toxin challenge” value is recorded as 100%; the “survival during the 12-hour period” value is on record as “all mice treated with any of the three inhibitors survived”. Also, the “treated mice that died 48 hours” value at BoNTA came to 40%. The “C24 (concentration 24 hours after one dose)” value in data set [2] was less than 0.5 ng/mL. Moreover, the “acute toxicity to mice, in words” value in data set [3] is on record as “no acute toxicity”. In the data set “in vivo”, this compound gave an AUC(0-t) of 1390 ng·h/mL and a Cmax of 738 ng/mL. Also, in “in vivo” (T1/2), the half-life was 6.5 h. The compound further had a half-life in the data set “in vivo” (in vivo half-life (t1/2)) of approximately 6 h. Also, the inhibition at 20 µM in data set [4] was found to be 82 ± 6%. Moreover, the solubility in “physchem” is not below 5 mM.
For the compound `NCCCCn1c(-c2ccccc2)cc2ccc(C(=O)c3cc(CC(=O)NO)c(-c4cccc(O)c4)s3)cc21` [Inhibitor H3H], at BoNTA, the “survival during the 12-hour period” value was “all mice treated with any of the three inhibitors survived” and the “treated mice that died 48 hours” value was found to be 40%. In data set [1], the “serotype specificity of BoNTAe inhibition, in words” value is listed as “serotype-specific”. Also, in data set [1] (read-out: Ki app), the Ki is 3.8 ± 0.77 µM. The Ki in data set [1] (read-out: Ki^app) is 4 µM. Besides, the “C24 (concentration 24 hours after one dose)” value in data set [2] amounted to 3.0 ng/mL. For the same compound, the “acute toxicity to mice, in words” value in data set [3] is reported as “no acute toxicity”. In “in vivo”, the area under the curve AUC(0-t) amounted to 1550 ng·h/mL and the concentration peaked (Cmax) at 497 ng/mL. The compound further gave a half-life in the data set “in vivo” (T1/2) of 4.35 h. In “in vivo” (in vivo half-life (t1/2)), this compound showed a half-life of approximately 4 h. The inhibition at 20 µM in data set [4] came to 78 ± 4%.
